Measurements: EP0171968A1, “Use of a phospholipid derivative” (Takeda Chemical Industries, Ltd., priority 1984, dated 1986)
≈ marks a conversion by molar mass, not a printed value.

Columns and labels:
[1] = test system: Meth A cells; test: Necrotic effect against the Meth A tumor tissue; format: in vivo, Balb/c mice; conditions: given intravenously, 7 days after transplantation, observed after 24 hours
[2] = test system: S 180 cells; test: Antitumor effect against mice bearing S 180 tumor (intraperitoneal inoculation, survival); format: in vivo, ICR mice; conditions: 0.3 mg/mouse once a day, three times in total; for T/C (%) (life-span prolongation ratio against the control group): control group average survival 12.2 days; for Number of mice surviving for 50 days: group of five ICR mice inoculated intraperitoneally with 1 x 10^5 S 180 cells
Experimental: ICR mice (a group consisting of five mice) were inoculated intraperitoneally with 1 x 10^5 S 180 cells per mouse, and then'given 0.3 mg/mouse of l-O-octadecyl-2-0-(morpholinocarbonyl)glycero-3-phosphocholine (Compound No. 1) dissolved in physiological saline once a day, three times in total, on the day of the inoculation and on the next day and the second day after the inoculation. The average of the survival days for the control group (consisting of 5 mice) was 12.2 days, whereas the number of surviving' mice in the drug-treated group on the 50th day and the life-span prolongation ratio (T/C) against the control group, are shown in Table 1.
In a similar manner, a test was carried out with 1-O-octadecyl-2-O-methylglycero-3-phosphocholine used as a control drug (A), with the results being shown below.

[3] = test system: human myelocytic leukemia cells HL-60; test: Growth inhibiting effect and differentiation inducing activity on HL-60 (method of R. Gallo et al.); format: cell-based; conditions: HL-60 cells
Experimental: According to the method of R. Gallo et al. described in Blood 54 (3), 713 (1979), the growth inhibiting effect (IG effect)and differentiation inducing activity of 1-0-octadecyl-2-O-(morpholinocarbonyl)glycero-3-phosphocholine against human myelocytic leukemia cells HL-60 were assayed.

[4] = test system: rat platelet; test: Platelet aggregation; format: cell-based; conditions: concentration of 3 x 10-^5 M
From the text: Neither l-0-octadecyl-2-0-(morpholinocarbonyl)glycero-3-phosphocholine nor 3-octadecyloxy-2-(morpholino-carbonyloxy)propyl 2-thiazolioethyl phosphate at a concentration of 3 x 10-^5 M caused platelet aggregation against rat platelet.

[5] = test system: S 180 cells; test: Activity toward mice bearing the Sarcoma 180 tumor (subcutaneous transplant, tumor weight); format: in vivo, ICR mice; conditions: 25 mg/kg injected into the tumor every four days from the 7th day, four times; for Proliferation inhibition ratio (%): 24th day, against control group; for Weight of tumor: measured on the 24th day
Experimental: ICR mice (male, 8-week-old, a group consisting of 5 mice), as divided into two groups, were transplanted subcutaneously with 1 x 10^6 S 180 cells per mouse, respectively. One group was treated with the drug by injection into the tumor every four days commencing with the 7th day after the transplantation, four times in total. On the 24th day, the average tumor weight for the drug-treated group was measured, and the ratio (the tumor proliferation inhibition ratio) against that for the control group (not treated with the drug) was calculated.

Row | Compound | T/C (%) (life-span prolongation ratio against the control group) [2] | Number of mice surviving for 50 days [2] | caused platelet aggregation against rat platelet [4] | Proliferation inhibition ratio (%) [5] [%] | Weight of tumor [5] [g] | other results
1 | CCCCCCCCCCCCCCCCCCOCC(COP(=O)([O-])OCC[N+](C)(C)C)OC(=O)N1CCCC1 (centres unmarked) [1-O-octadecyl-2-O-(pyrrolidinocarbonyl)glycero-3-phospho-choline] | – | – | – | – | – | change of the tumor tissue (necrosis) ([1]; 25 mg/kg): necrosis through bleeding
2 | CCCCCCCCCCCCCCCCCCOCC(COP(=O)([O-])OCC[N+](C)(C)C)OC(=O)N1CCOCC1 (stereo not drawn) [Compound 1, l-O-octadecyl-2-0-(morpholinocarbonyl)glycero-3-phosphocholine] | >336 | 2 | Neither | – | – | change of the tumor tissue (necrosis) ([1]; 1.25 mg/kg): necrosis through bleeding; differentiation inducing activity ([3]; concentration of 1-2 ug/ml): mild differentiation inducing activity; IC50 ([3]; Homo sapiens, read-out: IG effect on HL-60 (GD50)): 0.6 µg/mL (≈ 0.963 µM)
3 | CCCCCCCCCCCCCCCCCCOCC(COP(=O)([O-])OCC[N+](C)(C)C)OC (centres unmarked) [Control drug A, 1-O-octadecyl-2-O-methylglycero-3-phosphocholine, reference compound] | 162 | 0 | – | – | – | –
4 | CCCCCCCCCCCCCCCCCCOCC(COP(=O)([O-])OCC[N+](C)(C)C)OC(=O)N1CCCCC1 (centres unmarked) [Drug 2, 1-O-Octadecyl-2-O-(piperidinocarbonyl)glycero-3-phosphocholine] | – | – | – | 52.4 | 0.71 | –
5 | CCCCCCCCCCCCCCCCCCOCC(COP(=O)([O-])OCC[n+]1ccsc1)OC(=O)N1CCOCC1 (centres unmarked) [Drug 3, 3-Octadecyloxy-2-(morpholinocarbonyloxy)propyl 2-thiazolioethyl phosphate] | – | – | Neither | 73.9 | 0.39 | –
